From article PMC12440824, “Chimeric deubiquitinase engineering reveals structural basis for specific inhibition of the mitophagy regulator USP30” (Nature Structural & Molecular Biology, 2025)

Assays:
[1] = system: HeLa cells expressing YFP–parkin; ubiquitination of USP30 substrates (TOM20, TOM40, MFN2); assay: Mitochondrial ubiquitination analysis (OtUBD enrichment, western blot); type: cell-based, human; settings: 2 µM compound 19 h, then 10 µM CCCP 1 h
Protocol: Using a Trans-Blot Turbo system (Bio-Rad, 1.0 A, 25 V, 30 min), proteins were blotted onto a nitrocellulose membrane. Membranes were saturated by incubating in 5% (wt/vol) non-fat milk in PBS-T. Primary antibodies (anti-Flag, 1:1,000, Sigma, F3165; anti-USP30, 1:500, Sigma, HPA016952; anti-vinculin, 1:10,000, Sigma, V9131; anti-GAPDH, 1:10,000, Thermo Fisher, AM4300; anti-TOM40, 1:2,000, Proteintech, 18409-1-AP; anti-TOM20, 1:5,000, Proteintech, 11802-1-AP; anti-MFN2, 1:5,000, Proteintech, 12186-1-AP) were allowed to bind overnight. Appropriate horseradish peroxidase-coupled secondary antibodies (anti-mouse, 1:5,000, Sigma, NXA931; anti-rabbit, 1:5,000, Sigma, GENA934) were applied, and chemiluminescence was generated using Clarity Western ECL Substrate (Bio-Rad). For detection of endogenous USP30 levels, the Clarity Western ECL Substrate was supplemented with 10% Clarity Max Western ECL Substrate (Bio-Rad). Images were recorded on a ChemiDoc MP Imaging System (Bio-Rad).
HeLa cells constitutively expressing YFP–parkin were treated with 2 µM of the respective compounds or an equivalent volume of DMSO on the day after seeding. Nineteen hours after compound treatment, 10 µM carbonyl cyanide m-chlorophenyl hydrazone (CCCP, Acros Organics) or DMSO of the equivalent volume was added for 1 h before cells were washed with ice-cold PBS. Cells were then lysed in urea lysis buffer (4 M urea, 50 mM Tris-HCl, pH 8, 150 mM NaCl, 1% (vol/vol) IGEPAL, 2 mM EDTA, 5% (vol/vol) glycerol, 1× EDTA-free protease inhibitor cocktail, 1 mM PMSF, 10 µM PR619, 20 mM N-ethylmaleimide, 4 mM 1,10-phenanthroline) and collected by scraping. Cells were homogenized by sonication for 10 s (2 s on and 2 s off) at 10% amplitude and centrifuged for 10 min at 14,000g and 4 °C.
Biotinylated OtUBD (2 nmol, prepared as described elsewhere[53]) was immobilized on 35 µl of a high-capacity NeutrAvidin agarose bead slurry (Pierce, Thermo Fisher Scientific) per condition for 1 h at 4 °C with rotation. Excess reagent was washed away with ice-cold PBS. The beads were then equilibrated in urea lysis buffer. For each condition, an equal amount of 3 mg protein (as determined by the Bradford assay, in 1 ml of lysis buffer, typically obtained from one 10-cm dish) was added to the beads. These were then incubated for 2 h at 4 °C with rotation and pelleted by centrifugation at 500g for 1 min, and the supernatant was removed. Beads were then washed once with lysis buffer, once with high-salt buffer (50 mM Tris-HCl, pH 8, 1 M NaCl) and twice with PBS. Elution was carried out using 2× LDS sample buffer with 25 mM DTT and boiling for 5 min at 95 °C. After pelleting the beads at 500g for 1 min, the supernatant was transferred and analyzed by SDS–PAGE and western blotting as described above.

USP30^ch3 F157A = USP30^ch3 F157A (Homo sapiens, UniProt Q70CQ3, F157A, form not given); assay: Thermal shift assay, USP30 ch3 F157A; type: binding; settings: 20 μM inhibitor
Protocol: (§1) The thermal stability of USP30 constructs and effects of either inhibitor or Ub-PA binding were determined by thermal shift assays. Inhibitor, Ub-PA and SYPRO orange dye (Sigma, 5,000× stock in DMSO) solutions were prepared in 1× PBS, 4 mM DTT. Inhibitor/Ub-PA was prediluted to 100 µM, and SYPRO orange dye was prediluted to 50× (from the commercial stock). Mixtures of protein, inhibitor/Ub-PA and SYPRO were prepared with inhibitor/Ub-PA at a final concentration of 20 μM, SYPRO at a final concentration of 4× and protein at a final concentration of 2 μM for c1, 4 μM for ch1, ch4 and c2 and 3 μM for ch2 and ch3. Samples were added in triplicate to a white 96-well PCR plate (Bio-Rad). Fluorescence intensity was monitored (excitation, 450–490 nm; emission, 560–580 nm) at a gradient of 20–90 °C (increment of 0.3 °C, hold for 5 s before read) on a real-time PCR system (Bio-Rad).

USP30 c2 = assay: Thermal shift assay, USP30 c2; type: binding, human; settings: 20 μM inhibitor; for ΔTm, USP30 c2: replicates or average
Protocol: as §1

USP30^ch3 L328F = assay: Thermal shift assay, USP30 ch3 L328F; type: binding, human; settings: 20 μM inhibitor; for ΔTm, USP30^ch3 L328F: replicates or average
Protocol: as §1

[2] = system: T1, endogenous USP30 in HEK293 cells; assay: Cellular ubiquitin probe competition, endogenous USP30; type: cell-based, human; settings: 8 µM compound, 2 h; HA-Ub-PA probe in lysate
T1 construct: Target engagement assay with endogenous USP30; endogenous in cells; host or cells: HEK293 (DSMZ ACC 305)
Protocol: Cells were seeded at 8 × 10^5 cells per well and grown for 48 h. Compounds (2 µM for overexpressed USP30, 8 µM for endogenous USP30) or DMSO were added for 2 h in freshly supplied medium. The medium was aspirated, and cells were washed once with ice-cold PBS. Cells were collected by scraping in lysis buffer (150 mM NaCl, 250 mM sucrose, 50 mM Tris, pH 8.0, 5 mM TCEP) supplemented with EDTA-free complete protease inhibitor cocktail and benzonase. Suspended cells were homogenized by 12 bursts of a microtip probe sonicator (Branson Sonifier 450) at 10% amplitude with pulses of 1 s on ice. Remaining cell debris was separated by centrifugation (20,817g, 5 min, 4 °C). HA-Ub-PA probe was added to the cleared lysate (approximately 2–4 mg ml^−1) at a final concentration of 10 μM when indicated. After incubation for 10 min at room temperature, reactions were quenched by the addition of 4× reducing LDS sample buffer. Samples were resolved by SDS–PAGE and further analyzed via western blot.
Using a Trans-Blot Turbo system (Bio-Rad, 1.0 A, 25 V, 30 min), proteins were blotted onto a nitrocellulose membrane. […] Images were recorded on a ChemiDoc MP Imaging System (Bio-Rad).

Chain of USP30^ch3 F157A (Q70CQ3 64-502 F157A, form open): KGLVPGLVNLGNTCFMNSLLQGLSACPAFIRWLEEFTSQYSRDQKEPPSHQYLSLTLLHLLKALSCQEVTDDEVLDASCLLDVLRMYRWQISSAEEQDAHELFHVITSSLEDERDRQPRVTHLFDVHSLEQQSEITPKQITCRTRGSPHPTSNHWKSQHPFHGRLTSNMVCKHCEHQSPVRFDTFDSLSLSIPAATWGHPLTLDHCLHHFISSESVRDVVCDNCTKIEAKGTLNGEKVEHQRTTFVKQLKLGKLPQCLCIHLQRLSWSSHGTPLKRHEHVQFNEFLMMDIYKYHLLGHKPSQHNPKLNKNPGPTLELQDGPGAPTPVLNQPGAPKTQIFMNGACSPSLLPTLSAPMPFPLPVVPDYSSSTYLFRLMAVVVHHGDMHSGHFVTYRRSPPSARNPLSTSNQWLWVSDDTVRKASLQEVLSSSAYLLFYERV
Chain of USP30^ch3 F157A (P54578 248-318 partner, form open): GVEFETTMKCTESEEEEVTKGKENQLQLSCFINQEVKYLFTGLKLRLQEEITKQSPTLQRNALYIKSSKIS
Chain of USP30^ch3 F157A (Q9P2H5 821-846 partner, form open): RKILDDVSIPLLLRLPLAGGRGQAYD

SMILES | polyubiquitination of TOM20 and TOM40 [1] | polyubiquitination of mitofusin 2 (MFN2) [1] | Tm in presence of compound, USP30^ch3 F157A (USP30^ch3 F157A) [°C] | Tm in presence of compound, USP30 c2 (USP30 c2) [°C] | ΔTm, USP30 c2 (USP30 c2) [°C] | Tm in presence of compound, USP30^ch3 L328F (USP30^ch3 L328F) [°C] | ΔTm, USP30^ch3 L328F (USP30^ch3 L328F) [°C] | activity in probe-labeling experiment with endogenous USP30 [2]
CC(C)(C)NS(=O)(=O)c1ccc(NC(=O)[C@H](Cc2ccccc2)NC(=O)c2ccc(F)cc2)cc1 [compound 39] | elevated | not affecting | 58.8 | 58.5 | 7.8 | 58.5 | 1.5 | confirmed
CC(C)(CO)NS(=O)(=O)c1ccc(NC(=O)[C@H](Cc2ccccc2)NC(=O)c2ccc(F)cc2)cc1 [NK036] | elevated | not affecting | 58.5 | 58.2 | 7.5 | 58.2 | 1.2 | confirmed
